BindingDB's records for doi:10.7270/Q2MP51PC (Pcmd, 2008)

What follows are compounds tested against T1, Complement C1s subcomponent (Homo sapiens, UniProt P09871) (assay: C1s inhibitor IC50 values, dose response, biochemical (AID 787)).
T1 sequence (P09871 whole entry): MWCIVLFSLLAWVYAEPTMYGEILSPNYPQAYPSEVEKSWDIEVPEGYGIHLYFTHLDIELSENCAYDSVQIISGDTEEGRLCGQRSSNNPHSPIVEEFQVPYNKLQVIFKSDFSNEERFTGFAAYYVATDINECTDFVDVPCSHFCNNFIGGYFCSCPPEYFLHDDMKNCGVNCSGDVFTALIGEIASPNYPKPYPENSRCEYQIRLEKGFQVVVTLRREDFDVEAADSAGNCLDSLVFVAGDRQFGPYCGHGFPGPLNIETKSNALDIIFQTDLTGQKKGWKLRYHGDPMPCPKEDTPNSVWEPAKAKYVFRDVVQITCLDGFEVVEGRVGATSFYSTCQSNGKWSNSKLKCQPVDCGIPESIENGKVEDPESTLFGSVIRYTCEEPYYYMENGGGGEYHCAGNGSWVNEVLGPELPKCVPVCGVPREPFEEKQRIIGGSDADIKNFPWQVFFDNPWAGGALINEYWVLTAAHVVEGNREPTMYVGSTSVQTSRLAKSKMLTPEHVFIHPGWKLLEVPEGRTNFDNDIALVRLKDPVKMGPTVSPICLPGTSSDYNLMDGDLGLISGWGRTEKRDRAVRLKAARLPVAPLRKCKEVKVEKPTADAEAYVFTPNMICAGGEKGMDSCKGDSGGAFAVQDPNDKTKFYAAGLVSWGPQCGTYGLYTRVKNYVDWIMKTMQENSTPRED

Compound | IC50 [µM]
CCOC(=O)c1ccc(CSc2nncn2N)o1 [5-[[(4-amino-1,2,4-triazol-3-yl)thio]methyl]-2-furancarboxylic acid ethyl ester] | > 50
N#Cc1cnn(CC2CCCCC2)c1N [5-amino-1-(cyclohexylmethyl)-4-pyrazolecarbonitrile] | > 50
Cc1cc(NC(=O)c2cc3nc(C4CC4)cc(C(F)(F)F)n3n2)no1 [5-cyclopropyl-N-(5-methyl-1,2-oxazol-3-yl)-7-(trifluoromethyl)pyrazolo[1,5-a]pyrimidine-2-carboxamide] | > 50
Cc1ccc(CCNC(=O)C2CCC(=O)N2Cc2cccnc2)cc1 (stereo not drawn) [5-keto-N-[2-(p-tolyl)ethyl]-1-(3-pyridylmethyl)pyrrolidine-2-carboxamide] | > 50
CCOc1cc2[nH]c(=S)n(CC3CCCO3)c(=O)c2cc1OCC (stereo not drawn) [6,7-diethoxy-3-(2-oxolanylmethyl)-2-sulfanylidene-1H-quinazolin-4-one] | > 50
O=C(Cn1c(=O)oc2cc(S(=O)(=O)N3CCc4ccccc43)ccc21)N1CCCCC1 [6-(2,3-dihydroindol-1-ylsulfonyl)-3-(2-oxidanylidene-2-piperidin-1-yl-ethyl)-1,3-benzoxazol-2-one] | > 50
CC(=O)c1cc2c(cc1NC(=O)C1CC=CCC1C(=O)O)OCO2 (stereo not drawn) [6-[(6-acetyl-1,3-benzodioxol-5-yl)carbamoyl]cyclohex-3-ene-1-carboxylic acid] | > 50
Cc1coc2c(C)c3oc(=O)c4c(c3cc12)CCCC4 [7,10-dimethyl-1,2,3,4-tetrahydro-[1]benzofuro[6,5-c]isochromen-5-one] | > 50
CCOc1ccc(C2CC(c3cccc(Cl)c3)n3nc(N)nc3N2)cc1 (stereo not drawn) [7-(3-chlorophenyl)-5-(4-ethoxyphenyl)-1,5,6,7-tetrahydro-[1,2,4]triazolo[1,5-a]pyrimidin-2-amine] | > 50
COc1cc(C(Nc2ccccn2)c2ccc3ccc(C)nc3c2O)cc(OC)c1O (stereo not drawn) [7-[(3,5-dimethoxy-4-oxidanyl-phenyl)-(pyridin-2-ylamino)methyl]-2-methyl-quinolin-8-ol] | > 50
Cc1nnc(SC(=O)N2c3ccccc3Sc3ccccc32)s1 [10-phenothiazinecarbothioic acid S-(5-methyl-1,3,4-thiadiazol-2-yl) ester] | > 50
COc1ccc(Nc2cc(C)nc3nc(C)nn23)c(OC)c1 [(2,4-dimethoxyphenyl)-(2,5-dimethyl-[1,2,4]triazolo[1,5-a]pyrimidin-7-yl)amine] | > 50
COc1ccccc1Nc1nc(-c2cccs2)cs1 [(2-methoxyphenyl)-[4-(2-thienyl)thiazol-2-yl]amine] | > 50
COc1ccc(CC(=O)OCc2cc3ccccc3[nH]c2=O)cc1 [(2-oxidanylidene-1H-quinolin-3-yl)methyl 2-(4-methoxyphenyl)ethanoate] | > 50
COc1ccc(C(=O)n2nc(-c3ccco3)nc2SC)cc1OC [(3,4-dimethoxyphenyl)-[3-(2-furanyl)-5-(methylthio)-1,2,4-triazol-1-yl]methanone] | 2.37
Cc1noc(C)c1COC(=O)c1ccccc1NC(=O)Cc1ccccc1 [(3,5-dimethyl-1,2-oxazol-4-yl)methyl 2-(2-phenylethanoylamino)benzoate] | > 50
COc1ccc(C(=O)n2ccc(C)n2)cc1Br [(3-bromanyl-4-methoxy-phenyl)-(3-methylpyrazol-1-yl)methanone] | > 50
Oc1cccc(C(=S)N2CCN(Cc3ccccc3)CC2)c1 [(3-hydroxyphenyl)-[4-(phenylmethyl)-1-piperazinyl]methanethione] | > 50
CCCS(=O)(=O)N1CCC(C(=O)N2CCN(Cc3ccccc3)CC2)CC1 [(4-benzylpiperazin-1-yl)-(1-propylsulfonylpiperidin-4-yl)methanone] | > 50
CCN1CCN(C=Nc2nc3c(s2)CCCC3)CC1 [(4-ethylpiperazino)methylene-(4,5,6,7-tetrahydro-1,3-benzothiazol-2-yl)amine] | > 50
COc1ccc(C(=O)OCn2nnc3ccccc3c2=O)cc1OC [(4-oxidanylidene-1,2,3-benzotriazin-3-yl)methyl 3,4-dimethoxybenzoate] | > 50

Compound | IC50 [µM]
Cc1cccc(COc2ccc(C(=O)C3C(=O)C(=O)N(CCN(C)C)C3c3ccncc3)cc2)c1 (stereo not drawn) [(4E)-1-[2-(dimethylamino)ethyl]-4-[[4-[(3-methylphenyl)methoxy]phenyl]-oxidanyl-methylidene]-5-pyridin-4-yl-pyrrolidine-2,3-dione] | > 50
Nc1nc(C(=O)N2CCOCC2)nn1C(=O)c1ccc(Cl)cc1 [(5-azanyl-3-morpholin-4-ylcarbonyl-1,2,4-triazol-1-yl)-(4-chlorophenyl)methanone] | 12.1
CC1CNC(=Nc2cccc3ccccc23)S1 (stereo not drawn) [(5-methyl-2-thiazolin-2-yl)-(1-naphthyl)amine] | > 50
CCOC(=O)N1CCC2=C(C#N)C(=N)C(C#N)(C#N)[C@H](c3ccccc3OCC)[C@H]2C1 [(8R,8aR)-6-amino-5,7,7-tricyano-8-(2-ethoxyphenyl)-1,3,8,8a-tetrahydroisoquinoline-2-carboxylic acid ethyl ester] | > 50
CNC=C1C(=O)C(C)(C)Oc2ccc3ccc(=O)oc3c21 [(10Z)-8,8-dimethyl-10-(methylaminomethylene)pyrano[2,3-f]chromene-2,9-quinone] | > 50
COC(=O)c1ccc(OC(=O)c2ccco2)cc1 [Furan-2-carboxylic acid 4-methoxycarbonyl-phenyl ester] | 17.1
CCC(=O)Oc1ccc(C(CC)C(CC)c2ccc(OC(=O)CC)cc2)cc1 (stereo not drawn) [HEXESTROL DIPROPIONATE] | > 50
O=C1CS/C(=N\c2ccc(O)cc2)N1c1ccc(O)cc1 [MLS000027731] | > 50
COc1cc(NC(=O)c2cccs2)c(OC)cc1NC(=O)CCn1nnc2ccccc21 [MLS000027885] | > 50
COc1ccc(S(=O)(=O)n2nc(OC(=O)c3ccco3)cc2N)cc1 [MLS000033887] | 11.3
O=c1cc(-c2ccccc2)[nH]c2nc(-c3ccccc3)nn12 [MLS000037061] | > 50
O=C(NC1CCS(=O)(=O)C1)c1cccc(S(=O)(=O)N2CCCCC2)c1 (stereo not drawn) [MLS000049608] | > 50
COc1ccc(NC(=O)C2CCC(=O)N2S(=O)(=O)c2ccc(C)cc2)c(OC)c1 (stereo not drawn) [MLS000050140] | > 50
Cc1csc(NC(=O)c2cccc(S(=O)(=O)N3CCCCC3)c2)n1 [MLS000058185] | > 50
COc1ccc(NC(=O)c2cccs2)cc1OC [MLS000058874] | > 50
O=C(Nc1ccc(Cl)cc1)c1ccc2c(c1)OCO2 [MLS000062068] | > 50
O=C(NC1CCCC1)c1cccc(S(=O)(=O)N2CCCCC2)c1 [MLS000065413] | > 50
O=C(NCc1ccco1)c1cccc(S(=O)(=O)N2CCCCC2)c1 [MLS000065416] | > 50
O=C(c1csc2ccccc12)n1cccn1 [MLS000065687] | 14.9
Cc1ccc(NS(=O)(=O)c2cc(C(=O)N3CCOCC3)ccc2C)cc1C [MLS000066131] | > 50
CCCCC(=O)Nc1ccc(NC(=O)c2cccnc2)cn1 [MLS000068397] | > 50

Compound | IC50 [µM]
O=C(c1ccco1)N1CCN(S(=O)(=O)c2ccc(S(=O)(=O)NC3CCCCC3)cc2)CC1 [MLS000068710] | > 50
O=C(N1CCOCC1)C12CCC3CC(CC(C3)C1)C2 [MLS000071057] | > 50
O=C(Nc1ccc2oc(=O)ccc2c1)c1cccnc1 [MLS000075075] | > 50
COc1ccc(Cl)cc1NC(=O)CCN1CCN(c2ccccc2C)CC1 [MLS000075926] | > 50
O=C(Nc1cc(Cl)ccc1N1CCOCC1)c1cnccn1 [MLS000076142] | > 50
COc1cccc(NC(=O)CCP(C)(=O)O)c1 [MLS000079835] | > 50
CCC(=O)Nc1ccc(C(=O)Nc2ccc3c(c2)OCO3)cc1 [MLS000085289] | > 50
CC1(C)COCN1S(=O)(=O)c1ccc(C(=O)Nc2nnc(-c3ccc(Cl)s3)o2)cc1 [MLS000086346] | > 50
O=C(NCCc1ccccc1)c1noc2c1CCc1ccccc1-2 [MLS000087424] | 14
CCCN(c1nc(C)cc(OC)n1)S(=O)(=O)c1ccccc1 [MLS000087928] | > 50
COc1ccc(S(=O)(=O)N2CCOCC2)cc1C(=O)Nc1nc2ccccc2s1 [MLS000088961] | > 50
Cc1cc(=O)[nH]c(SCC(=O)c2ccc(C(C)C)cc2)n1 [MLS000089861] | > 50
CCC(=O)Nc1cccc(-c2nc3ccccc3c(=O)o2)c1 [MLS000090237] | 34.7
CCc1ccccc1N(C(=O)c1cccs1)C1C=CS(=O)(=O)C1 (stereo not drawn) [MLS000093437] | > 50
CCCCC(=O)Nc1ccc(NC(=O)c2ccc3c(c2)OCO3)cc1OC [MLS000097195] | > 50
CCc1cc(=O)oc2cc(C)cc(OC(=O)c3ccco3)c12 [MLS000099547] | 10.1
COc1cc(C)nc(NS(=O)(=O)c2ccccc2)n1 [MLS000100375] | > 50
CC(=O)Nc1ccc(NC(C)=O)s1 [MLS000105054] | > 50
O=C1CCCC(=O)C1=CNCCc1ccccc1 [MLS000108318] | > 50
Cc1csc(NC(=O)c2ccco2)n1 [MLS000108918] | > 50
COc1ccccc1CNC(=O)C1COc2ccccc2O1 (stereo not drawn) [MLS000110123] | > 50
